# Measured values as given in article PMC12598616, “Design and optimization of caspase-1-responsive fluorescent probes for pyroptosis imaging and anti-pyroptosis drug screening” (Chemical Science, 2025).
# Experiments:
# Cas-1 in THP-1 cells [1] = assay: Confocal fluorescence imaging of Cas-1 in THP-1 cells; type: cell-based; conditions: for intracellular fluorescence intensity, ATP stimulation / intracellular fluorescence intensity, Nig stimulation: LPS 1 μg/mL 4 h, probe 5 μM 1 h; for intracellular fluorescence intensity, ATP stimulation: then ATP 2 mM 0, 1, 2 h; for intracellular fluorescence intensity, Nig stimulation: then Nig 10 μM 0, 1, 2 h
# Description: To assess the capability of FPy1 and YPy1 to monitor endogenous Cas-1, the classic NLRP3 inflammasome-mediated Cas-1 activation model was established in THP-1 cells. THP-1 cells were initially stimulated with LPS (1 μg mL^−1) for 4 h to prime the production of NLRP3 inflammasome-associated proteins. Subsequently, the cells were stimulated with Nigericin (Nig, 10 μM) or ATP (2 mM) for various durations to induce the activation of Cas-1 and the pyroptosis-related pathway. The THP-1 cells were further stained with FPy1 or Ypy1 (5 μM) for 1 h and imaged (Fig. 3a). […] Western blot (WB) analysis confirmed that, regardless of whether Nig or ATP was used as the stimulant, the level of activated Cas-1 was consistent with the fluorescence imaging results (Fig. S8a–d). […] Therefore, FPy1 may be a more suitable candidate for monitoring low caspase-1 levels in subsequent imaging studies. […] To investigate the distribution of FPy1 within cells, THP-1 cells were co-stained with FPy1 and commercially available organelle-tracking dyes, including Mito-Tracker Green (mitochondria), Golgi-Tracker Green (Golgi apparatus), Lyso-Tracker Green (lysosomes) and ER-Tracker Green (endoplasmic reticulum). All dyes were imaged in the green fluorescence channel to avoid overlap with the red emission of FPy1 (Fig. 3f–i). […] The corresponding Pearson's correlation coefficients for mitochondria, Golgi apparatus, lysosomes, and endoplasmic reticulum were 0.4954, 0.4320, 0.5682, and 0.4448, respectively. […] To further confirm the specificity of FPy1 for Cas-1 imaging in living cells, THP-1 cells with Cas-1 knockdown via siRNA were constructed. […]
# (§1) Intracellular imaging with FPy1 in THP-1 cells
# THP-1 cells were seeded in dishes and cultured overnight. After stimulation with LPS (1 μg/mL in RPMI 1640 medium) for 4 hours, the cells were further treated with Nig (10 μM) or ATP (2 mM) for 0, 1, 2 hours. The medium was then replaced with fresh medium with FPy1 (5 μM), and cells were incubated at 37 °C for 1 hour before being washed twice […]
# with PBS. […]
# After washing, the THP-1 cells were separately incubated with commercially available dyes targeting mitochondria (Mito-Tracker Green), lysosomes (Lyso-Tracker Green), endoplasmic reticulum (ER-Tracker Green), and Golgi apparatus (Golgi-Tracker Green) for 30 minutes. […]
# Nucleus pulposus spheroid cultivation […]
# Intracellular imaging in nucleus pulposus cells and 3D cell spheroids
# The primary nucleus pulposus cells or 3D cell spheroids were seeded in dishes and cultured overnight. […]
# Cas-1 in THP-1 cells [2] = assay: Imaging and flow cytometry in Cas-1 siRNA knockdown THP-1 cells; type: cell-based; conditions: caspase-1 siRNA, LPS 1 μg/mL and Nig 10 μM
# Description: Cytotoxicity assay (CCK-8)
# The cytotoxicity of FPy1 and YPy1 to THP-1 was evaluated by cell counting kit-8 (CCK-8). Briefly, the THP-1 cells were seeded in 96-well plates (5000 cells/well) and cultured at 37 °C for 24 hours. Various concentrations of FPy1 or YPy1 (0, 2.5, 5, 10, 20, 30, 40, 50 μM) in RPMI 1640 medium were added, and the cells were kept incubation for 12 hours. Then, the cells were washed with PBS and incubated in the 100 μL fresh medium with 10 μL CCK8 dye for an additional 2 hours. The absorbance was measured at 450 nm using a Tecan Infinite M1000 Multi-function microplate reader, and cell viability was calculated using the formula:
# Cell viability (%) = [(OD test-ODblank)/(ODcontrol-ODblank)] ×100%
# as §1
# THP-1 cells were seeded in dishes and cultured overnight. […] The fluorescence imaging was performed under the excitation at 514 nm with signal collection in the range […]
# for 4 hours, the cells were further treated with Nig (10 μM) for 2 hours. […] The distribution of FPy1 was analyzed by collecting organelle-specific dye fluorescence at 495-525 nm with 488 nm excitation, while simultaneously detecting FPy1 fluorescence at 530-610 nm with 514 nm excitation. […]
# Nucleus pulposus cells were isolated from discs and resuspended in 1mL DMEM/F12 medium containing 10 μM ITS-A. A total of […] were counted and transferred into centrifuge tubes. […]
Substance,"fluorescence increase relative to YPy1 (Cas-1 in THP-1 cells [1]; 2 h of Nig or ATP stimulation, probe 5 μM)","intracellular fluorescence intensity, ATP stimulation (Cas-1 in THP-1 cells [1])","intracellular fluorescence intensity, Nig stimulation (Cas-1 in THP-1 cells [1])",fluorescence intensity in Si-Casp1 group (flow cytometry) (Cas-1 in THP-1 cells [2]),intracellular fluorescence intensity in Si-Casp1 group (confocal) (Cas-1 in THP-1 cells [2]; FPy1 5 μM)
"–FLTDG– [FPy1, RhoB donor, hNR quencher]",slightly higher than that of YPy1,increased with prolonged stimulation time,increased with prolonged stimulation time,lower than that in the Si-Scramble group,significantly lower than that in the Si-Scramble group
"–YVADG– [YPy1, caspase-1-responsive FRET probe with recognition peptide –YVADG–; RhoB donor, hNR quencher]",–,increased with prolonged stimulation time,increased with prolonged stimulation time,–,–
